Measured values from patent US7265155B2 (NBS Pharmaceuticals, Inc., priority 1996, dated 2007).
Values joined by “and” are separate entries in the source; they are usually repeats but may differ in a detail not shown here. Equal values may be shown once. “Also recorded” adds a separate entry of the source. Read-outs that look alike come from different tables or passages of the source. Marks after values point to notes of the source that are not given here.

What was measured:
Format in all cases: in vivo
[1] = test system: Frings mouse; assay: Rotarod motor impairment (toxicity) in the Frings mouse
Protocol: (§1) The average seizure score can be calculated for each group of mice employed in the dose-response study. At each dose, mice are also tested on a rotarod for testing of motor impairment (toxicity). Testing for motor impairment on the rotarod involves placing a mouse for a three-minute trial period on a one-inch diameter rod rotating at six revolutions per minute. If the mouse falls off of the rotating rod three times within the three-minute time period, it is considered a toxic response.

[2] = as above; details: Frings, mouse, in vivo
Protocol: as §1

[3] = test system: Frings audiogenic seizure-susceptible mouse; assay: Frings audiogenic seizure-susceptible mouse model of epilepsy; details: for ED50: Mus musculus
Text: One useful model is provided by the Frings audiogenic seizure-susceptible mouse, a model of reflex epilepsy. At the time of testing, individual mice are placed into a round Plexiglas chamber and exposed to a sound stimulus of 110 decibels, 11 kHz, for 20 seconds. Animals not displaying tonic hindlimb extensions were considered protected. In addition, the seizure score for each mouse can be recorded as: (1) running for less than 10 seconds; (2) running for greater than 10 seconds; (3) clonic activity of limbs and/or vibrissae; (4) forelimb extension/hindlimb flexion; and (5) hindlimb extension.
as §1

[4] = test system: chronic spinalized rat; assay: Flexor reflex (EMG) in the chronic spinalized rat; details: 300 mg/kg p.o.; 30, 60, 90 and 120 minutes post-administration
Protocol: With reference to FIG. 3, the polysynaptic flexor-reflex responses, to test stimuli which activate high-threshold afferents, were recorded as EMG activity from the ipsilateral hamstring muscle. Supramaximal electric shocks were applied to the hindpaw, and recording electrodes were placed in the biceps femoris semitendinosus muscle. Five sets of stimuli were made at each time point. The flexor reflex was recorded, in both the pre-drug and the post-drug periods, every 30 minutes once a stable baseline response was achieved. See Hao et al., Eur. J. Pharmacol. 191: 407 (1990).
Thus, the responses were determined in spinalized rats by observing the flexor-reflex response (FIG. 3) before treatment and at each of 30, 60, 90, and 120 minutes following administration of isovaleramide (300 mg/kg p.o.), baclofen (10 mg/kg s.c.) and vehicle (water, 12 ml/kg p.o.), respectively.
In FIG. 4, the responses from FIG. 3 and additional doses of isovaleramide and baclofen are converted to a total-area-under-the-curve format, covering the entire, two-hour measurement period. […] Between the drug-treated groups, no differences were found in total reduction of the flexor reflex over the two-hour period (pairwise multiple comparison, Student-Newman-Keuls method).

[5] = test system: amygdala-kindled rat; assay: Antiepileptogenic effect during kindling in the amygdala-kindled rat; details: daily 500 mg/kg p.o.
Protocol: In these studies, groups of adult, male Sprague-Dawley rats weighing at least 230 gr were implanted with a teflon-coated bipolar electrode sterotaxically placed in the anterior basolateral nucleus of the amygdala under ketarine and xylazine anesthesia. The electrode was implanted at the following coordinates with Bregma as zero: AP-2.2 mm, ML-4.7 mm, DV-8.7 mm. Chronic treatment with vehicle (0.5% carboxymethylcellulose, p.o.) or isovaleramide (500 mg/kg, p.o., […] of body weight) was initiated after a seven-day postoperative recovery period. […] After 11 treatment days, all animals were permitted a 7-day drug- and stimulus-free period. […] Seizure score and afterdischarge duration were recorded after each stimulation. Seizure score was classified according to Racine scale (1972): stage 0, no abnormal behavior; stage 1, mouth or facial movements; stage 2, mouth or facial movements and head nodding; stage 3, stage 2 and forelimb clonus; stage 4, stage 3 and rearing; stage 5, stage 4 and falling. A score of 2-3 represents a focal seizure while a score of 4-5 represents secondarily generalized seizures. Afterdischarge duration was the total duration of the amygdala electroencephalogram spikes with an amplitude of at least twice the amplitude of the prestimulus recording and a frequency greater than 1/sec. […]

## CC(C)CC(N)=O [Isovaleramide, isovaleramide]
[1]; 75 mg/kg i.p., 15 minutes
  Number Showing Toxicity of Eight Mice Tested: 0
[1]; 112.5 mg/kg i.p., 15 minutes
  Number Showing Toxicity of Eight Mice Tested: 0
[1]; 150 mg/kg i.p., 15 minutes
  Number Showing Toxicity of Eight Mice Tested: 0
[1]; 300 mg/kg i.p., 15 minutes
  Number Showing Toxicity of Eight Mice Tested: 1/8 and 1
[1]; 300 mg/kg oral, tested at 15 minutes
  Number Showing Toxicity of Eight Mice Tested: 1
[1]; 600 mg/kg i.p., 15 minutes
  Number Showing Toxicity of Eight Mice Tested: 4/8 and 4
[1]; 600 mg/kg oral, tested at 15 minutes
  Number Showing Toxicity of Eight Mice Tested: 1
[1]; 1000 mg/kg i.p., 15 minutes
  Number Showing Toxicity of Eight Mice Tested: 8/8 and 8
[1]; 1000 mg/kg oral, tested at 15 minutes
  Number Showing Toxicity of Eight Mice Tested: 5
[1]; 1500 mg/kg oral, tested at 15 minutes
  Number Showing Toxicity of Eight Mice Tested: 5
[1]; 2000 mg/kg oral, tested at 15 minutes, only seven mice tested
  Number Showing Toxicity of Eight Mice Tested: 7^d
[1]; doses up to 512 mg/kg i.p. 15 minutes before test
  rotarod performance in the Frings mouse: did not affect performance significantly
[1]; i.p.
  doses at which behavioral toxicity (inability to maintain balance on the rotarod) was displayed: > 300 mg/kg
  doses at which no notable toxicity was observed: less than 300 mg/kg
[2]; ip, 15 minutes, read-out: TD50 for rotarod impairment
  TD50 at 15 min: 531 mg/kg
[2]; oral, read-out: TD50
  TD50 at 15 min: 1010 mg/kg
[3]; 75 mg/kg i.p., 15 minutes
  Number Protected of Eight Mice Tested: 1
  Seizure Score ± S.E.M.: 4.4 ± 0.6
[3]; 100 mg/kg oral
  Seizure Score ± S.E.M.: 4.5 ± 0.5
[3]; 100 mg/kg oral, measured at 30 minutes
  Number Protected of Eight Mice Tested: 1
[3]; 112.5 mg/kg i.p., 15 minutes
  Number Protected of Eight Mice Tested: 2
  Seizure Score ± S.E.M.: 4.0 ± 0.6
[3]; 150 mg/kg i.p., 15 minutes
  Number Protected of Eight Mice Tested: 6
  Seizure Score ± S.E.M.: 2.0 ± 0.6
[3]; 200 mg/kg oral
  Seizure Score ± S.E.M.: 2.9 ± 0.8
[3]; 200 mg/kg oral, measured at 30 minutes
  Number Protected of Eight Mice Tested: 4
[3]; 300 mg/kg i.p., 15 minutes
  Number Protected of Eight Mice Tested: 8
  Seizure Score ± S.E.M.: 1.0 ± 0
[3]; 300 mg/kg oral
  Seizure Score ± S.E.M.: 1.4 ± 0.5
[3]; 300 mg/kg oral, measured at 30 minutes
  Number Protected of Eight Mice Tested: 7
[3]; 600 mg/kg oral
  Seizure Score ± S.E.M.: 0.25 ± 0.25
[3]; 600 mg/kg oral, measured at 30 minutes
  Number Protected of Eight Mice Tested: 8
[3]; 1500 mg/kg oral
  Seizure Score ± S.E.M.: 0.6 ± 0.2
[3]; 1500 mg/kg oral, tested at 4 hours
  Number Protected of Eight Mice Tested: 8^b
[3]; 2000 mg/kg oral
  Seizure Score ± S.E.M.: 0 ± 0
[3]; 2000 mg/kg oral, tested at 4 hours, only seven mice tested
  Number Protected of Eight Mice Tested: 7^b,d
[3]; ip, 0.25 h, i.p., 15 minutes, read-out: ED50 for protection against tonic extension
  ED50: 126 mg/kg
[3]; oral, read-out: ED50 for protection
  ED50: 186 mg/kg
[3]; i.p.
  time course of anticonvulsant activity: noted as early as 15 minutes, but decreased substantially by two hours
[3]; i.p., 15 minutes
  seizure score, dose dependence: dose-dependent reduction in seizure score
[3]; oral
  anticonvulsant activity when administered orally: displayed anticonvulsant activity when administered orally
[4]
  magnitude of the flexor reflex: reduce the magnitude of the flexor-reflex responses, at all time points; also recorded: significant decrease in the magnitude of the flexor reflex, comparable to that observed with baclofen
[5]
  seizure development over time: eventually developed full stage 5 seizures
[5]; 30-minute pretreatment
  increases in seizure score and afterdischarge duration during electrical kindling: delayed the increases in both seizure score and afterdischarge duration; also recorded: elicited a delay in the rate of increase in both seizure score and afterdischarge duration
